Legend:
Format in all cases: in vivo
cAMP = experiment: ELISA, content of cAMP in serum of rats; conditions: rat serum, positive drug group, dose not given
Experimental: (§1) drenching animals in sequence to put to death within 3 cycles, enabling the animals to have empty stomachs for 12 hours before putting to death, and performing intraperitoneal anesthesia with 3% of pentobarbital sodium at a dose of 0.1 ml/100 g; and taking 8 ml of whole blood in a centrifuge tube, centrifuging at a rate of 4000 r/min for 15 min, separating the serum after centrifuging, labeling, and separately filling and preserving in a refrigerator of −20° C.; 2) ELISA Determination Method is as Follows: Detection is performed according to description of an ELISA kit. Before use, all reagents are fully and uniformly mixed. Lots of bubbles should not be produced in liquid, so as to avoid generating a sample adding error due to addition of lots of bubbles during sample adding. The quantity of needed plates is determined according to a quantity of to-be-detected samples and the quantity of standard substances. […] However, since many samples need to be determined, single holes should be made according to actual conditions. […] A basic principle of enzyme-labeled immunoassay is as follows: an antibody connected onto a solid-phase carrier and an enzyme-labeled antibody are respectively bound to two antigenic determinants on a detected antigen molecule in the sample to form a solid-phase antibody-antigen-enzyme-labeled antibody immune complex. […]

[1] = system: rats suffering from the menopausal depression; experiment: open-field test of rats; parameters: After medication minus Before medication (Fecal weight) / Fecal weight: unit not given here; conditions: positive drug group, dose not given
IL-8 = experiment: ELISA, content of IL-8 in serum of rats; conditions: rat serum, positive drug group, dose not given
Experimental: as §1

[2] = system: rats suffering from the menopausal depression; experiment: open-field water drinking test of rats; conditions: positive drug group, dose not given
estradiol = experiment: ELISA, content of estradiol in serum of rats; conditions: rat serum, positive drug group, dose not given
Experimental: as §1

IL-2 = experiment: ELISA, content of IL-2 in serum of rats; conditions: rat serum, positive drug group, dose not given
Experimental: as §1

noradrenaline = experiment: ELISA, content of noradrenaline in serum of rats; conditions: rat serum, positive drug group, dose not given
Experimental: as §1

5-hydroxytryptamine = experiment: ELISA, content of 5-hydroxytryptamine in serum of rats; conditions: rat serum, positive drug group, dose not given
Experimental: as §1

dopamine = experiment: ELISA, content of dopamine in serum of rats; conditions: rat serum, positive drug group, dose not given
Experimental: as §1

cGMP = experiment: ELISA, content of cGMP in serum of rats; conditions: rat serum, positive drug group, dose not given
Experimental: as §1

[3] = system: adrenocorticotrophic hormone; experiment: ELISA, content of adrenocorticotrophic hormone in serum of rats; conditions: rat serum, positive drug group, dose not given
Experimental: as §1

[4] = system: follicle-stimulating hormone; experiment: ELISA, content of follicle-stimulating hormone in serum of rats; conditions: rat serum, positive drug group, dose not given
Experimental: as §1

IL-6 = experiment: ELISA, content of IL-6 in serum of rats; conditions: rat serum, positive drug group, dose not given
Experimental: as §1

oxytocin = experiment: ELISA, content of oxytocin in serum of rats; conditions: rat serum, positive drug group, dose not given
Experimental: as §1

**Q.** Which cAMP (cAMP) does the source give for Fc1ccc([C@@H]2CCNC[C@H]2COc2ccc3c(c2)OCO3)cc1 [Paroxetine, paroxetine] here?
**A.** 2.7761 ± 0.3726 U/L

**Q.** And the Fecal weight ([1]; rats after medication)?
**A.** 0.14 ± 0.38

**Q.** And the Horizontal scores ([1]; rats after medication)?
**A.** 78.29 ± 28.18

**Q.** And the Vertical scores ([1]; rats after medication)?
**A.** 9.57 ± 4.68

**Q.** And the “After medication minus Before medication (Fecal weight)” value ([1]; rats)?
**A.** −0.94 ± 0.71

**Q.** What about the “After medication minus before medication (horizontal scores)” value ([1]; rats) of the same molecule?
**A.** 41.14 ± 28.54

**Q.** And the IL-8 (IL-8)?
**A.** 196.479 ± 14.596 ng/L

**Q.** What about the “Number of times approaching to water bottles” value ([2]; rats after medication) of the same molecule?
**A.** 10.43 ± 5.09

**Q.** And the “Number of times standing” value ([2]; rats after medication)?
**A.** 11.28 ± 4.23

**Q.** What about the “Water drinking latent period” value ([2]; rats after medication) of the same molecule?
**A.** 88.86 ± 20.05

**Q.** What about the Water drinking time ([2]; rats after medication) of the same molecule?
**A.** 112.14 ± 50.83

**Q.** What about the “After medication minus Before medication (Frequencies of approaching water bottles)” value ([2]; rats) of the same molecule?
**A.** 6.5742 ± 4.0443

**Q.** And the “After medication minus Before medication (Standing frequency)” value ([2]; rats)?
**A.** 7.5728 ± 4.5413

**Q.** And the “After medication minus Before medication (Water drinking time)” value ([2]; rats)?
**A.** 112.14 ± 50.83

**Q.** And the “After medication minus Medication (Water drinking latent period)” value ([2]; rats)?
**A.** 70.43 ± 35.65

**Q.** And the E2 (estradiol)?
**A.** 10.0566 ± 0.7140 ng/L

**Q.** And the IL-2 (IL-2)?
**A.** 341.853 ± 59.289 ng/L

**Q.** And the NA (noradrenaline)?
**A.** 32.5359 ± 5.6128 ng/L

**Q.** What about the 5-HT (5-hydroxytryptamine) of the same molecule?
**A.** 42.9048 ± 6.2922 ng/L

**Q.** What about the DA (dopamine) of the same molecule?
**A.** 7.6595 ± 1.3337 pg/L

**Q.** What about the cGMP (cGMP) of the same molecule?
**A.** 1.8333 ± 0.4686 U/L

**Q.** What about the ACTH [3] of the same molecule?
**A.** 16.3682 ± 1.8767 ng/L

**Q.** What about the FSH [4] of the same molecule?
**A.** 3.7068 ± 0.6242 IU/L

**Q.** And the IL-6 (IL-6)?
**A.** 14.9800 ± 2.9183 ng/mL

**Q.** What about the OT (oxytocin) of the same molecule?
**A.** 4.1889 ± 0.8811 ng/L

— US20180161383A1, “NATURAL PHARMACEUTICAL COMPOSITION FOR TREATING MENOPAUSAL MENTAL DEPRESSION AND ATYPICAL DEPRESSIVE DISORDER AND APPLICATION THEREOF” (SHAANXI TIANKUI BIOMEDICINE TECHNOLOGY LIMITED COMPANY, priority 2015, published 2018)
